From paper PMC5623949, “Exploiting the 2-Amino-1,3,4-thiadiazole Scaffold To Inhibit Trypanosoma brucei Pteridine Reductase in Support of Early-Stage Drug Discovery” (ACS Omega, 2017)
Like-named read-outs stand apart in the source and are kept apart here.

Tests used:
TbPTR1 = target: T1, TbPTR1 (Trypanosoma brucei brucei, UniProt O76290); experiment: biochemical; details: 50 μM compound; for inhibition at 50 µM: read-out: % Inhibition TbPTR1 at 50 μM
T1 construct: made in house
T1 sequence (O76290 1-268): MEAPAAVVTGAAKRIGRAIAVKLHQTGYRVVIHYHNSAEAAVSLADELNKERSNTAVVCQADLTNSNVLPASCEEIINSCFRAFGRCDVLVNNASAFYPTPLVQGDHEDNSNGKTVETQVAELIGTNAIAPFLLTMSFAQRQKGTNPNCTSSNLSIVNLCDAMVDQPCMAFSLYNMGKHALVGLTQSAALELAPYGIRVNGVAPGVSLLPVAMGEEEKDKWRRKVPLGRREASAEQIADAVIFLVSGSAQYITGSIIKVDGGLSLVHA

[1] = tested on: T. b. brucei Lister 427 bloodstream forms; experiment: In vitro activity against T. brucei (HTS SYBR Green I growth inhibition assay); type: cell-based, Trypanosoma brucei brucei; details: Trypanosoma brucei, standard deviation within ±10% of the value; for inhibition at 50 µM: read-out: % Inhibition T. brucei at 50 μM
hERG = target: T2, hERG (Homo sapiens, UniProt Q12809); set-up: hERG inhibition liability assay
T2 construct: gene KCNH2
T2 sequence (Q12809 whole entry): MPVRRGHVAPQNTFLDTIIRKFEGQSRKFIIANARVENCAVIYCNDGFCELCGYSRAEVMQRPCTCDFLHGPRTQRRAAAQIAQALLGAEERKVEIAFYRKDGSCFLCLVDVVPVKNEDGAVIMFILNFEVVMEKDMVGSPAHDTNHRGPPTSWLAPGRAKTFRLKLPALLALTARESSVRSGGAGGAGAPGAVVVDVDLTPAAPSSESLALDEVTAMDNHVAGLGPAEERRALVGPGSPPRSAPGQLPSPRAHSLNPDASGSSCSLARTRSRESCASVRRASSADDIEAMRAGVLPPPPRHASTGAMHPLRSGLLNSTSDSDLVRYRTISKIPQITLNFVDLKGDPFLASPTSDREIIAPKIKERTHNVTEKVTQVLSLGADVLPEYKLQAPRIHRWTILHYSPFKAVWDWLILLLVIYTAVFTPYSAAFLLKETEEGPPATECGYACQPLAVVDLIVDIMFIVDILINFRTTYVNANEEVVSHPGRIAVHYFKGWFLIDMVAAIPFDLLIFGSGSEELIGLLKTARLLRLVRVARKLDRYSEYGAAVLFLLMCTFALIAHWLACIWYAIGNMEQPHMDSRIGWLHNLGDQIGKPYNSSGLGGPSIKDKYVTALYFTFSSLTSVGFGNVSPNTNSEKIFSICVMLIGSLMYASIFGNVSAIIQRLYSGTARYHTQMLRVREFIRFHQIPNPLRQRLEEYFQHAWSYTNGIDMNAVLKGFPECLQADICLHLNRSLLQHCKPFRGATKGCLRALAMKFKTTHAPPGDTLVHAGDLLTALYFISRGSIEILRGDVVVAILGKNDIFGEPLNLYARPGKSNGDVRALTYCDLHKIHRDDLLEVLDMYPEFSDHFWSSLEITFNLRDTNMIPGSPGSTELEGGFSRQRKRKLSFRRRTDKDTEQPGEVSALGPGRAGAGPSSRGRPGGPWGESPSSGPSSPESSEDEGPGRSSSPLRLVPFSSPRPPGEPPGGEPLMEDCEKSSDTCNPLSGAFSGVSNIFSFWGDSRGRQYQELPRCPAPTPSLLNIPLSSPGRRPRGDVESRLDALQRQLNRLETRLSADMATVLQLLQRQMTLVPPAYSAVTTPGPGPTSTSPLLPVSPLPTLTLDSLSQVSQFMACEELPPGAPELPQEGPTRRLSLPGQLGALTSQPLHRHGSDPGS
Protocol: (§1) Independent of the effect of any antiparasitic potential of compounds, they were evaluated using a panel of early-toxicity assays comprising cytotoxicity (A549, human lung adenocarcinoma epithelial cell line and WI-38, human lung fibroblasts), mitochondrial toxicity (786-O, human renal carcinoma cell line), hERG inhibition,[31] cytochrome P450 inhibition (CYP1A2, CYP2C9, CYP2C19, CYP2D6, and CYP3A4),[31] and Aurora B kinase inhibition. […] For the two compounds active against TbPTR1 (4m and 4o), IC50 against hERG, cytochrome P450, and mitochondrial toxicity were determined (reported in Supporting Information). We observed that the dose of compounds 4m, 4o, 4c, and 3k was 4 μM in the potentiation assays. […] In the case of hERG, CYP2D6, CYP2A9, CYP2C19, and mitochondrial toxicity, there is a selectivity index of around 3–4 fold, thus showing an acceptable profile.  Figure 10 Summary heat map of the in vitro assays to determine possible liability issues for all synthesized compounds. Assays were performed to assess inhibition of hERG and five CYP isoforms (1A2, 2C9, 2C19, 2D6, and 3A4), growth inhibition of A549 and W1-38 cell lines, and mitochondrial toxicity at 10 μM. The hDHFR inhibition was determined at 100 μM. The data, expressed as percentage values, were organized by adopting a color code for rapid and intuitive visualization. The ideal compound should have all tiles blue, indicating a safe toxicological profile for progressing into the development pipeline. The cells are colored from blue (100% of cell growth at the tested concentration) to red (0% of cell growth at the tested concentration) for A549 and W1-38 and from blue (0% of inhibitory activity at the tested concentration) to red (100% of inhibitory activity at the tested concentration) for CYP isoforms, hERG, hDHFR, and mitochondrial toxicity.

CYP1A2 = target: T3, CYP1A2 (Homo sapiens, UniProt P05177); experiment: in vitro; set-up: cytochrome P450 isoform inhibition liability assay
T3 sequence (P05177 1-516): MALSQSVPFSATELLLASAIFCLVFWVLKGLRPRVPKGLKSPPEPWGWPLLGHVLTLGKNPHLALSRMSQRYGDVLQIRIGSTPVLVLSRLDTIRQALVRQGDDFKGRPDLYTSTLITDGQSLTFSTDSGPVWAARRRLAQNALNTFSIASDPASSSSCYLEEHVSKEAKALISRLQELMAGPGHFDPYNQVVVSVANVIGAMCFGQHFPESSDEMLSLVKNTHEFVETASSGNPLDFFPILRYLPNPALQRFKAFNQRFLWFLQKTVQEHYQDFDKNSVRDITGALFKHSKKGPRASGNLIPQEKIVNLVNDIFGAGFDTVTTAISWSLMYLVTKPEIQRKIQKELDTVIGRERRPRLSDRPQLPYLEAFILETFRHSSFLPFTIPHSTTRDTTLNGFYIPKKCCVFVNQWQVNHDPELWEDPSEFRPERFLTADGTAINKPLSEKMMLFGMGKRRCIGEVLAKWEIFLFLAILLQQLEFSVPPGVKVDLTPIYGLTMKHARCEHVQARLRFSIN
Protocol: as §1

CYP2C19 = CYP2C19 (Homo sapiens, UniProt P33261); experiment: in vitro; set-up: cytochrome P450 isoform inhibition liability assay
CYP2C19, sequence (P33261 whole entry, canonical isoform): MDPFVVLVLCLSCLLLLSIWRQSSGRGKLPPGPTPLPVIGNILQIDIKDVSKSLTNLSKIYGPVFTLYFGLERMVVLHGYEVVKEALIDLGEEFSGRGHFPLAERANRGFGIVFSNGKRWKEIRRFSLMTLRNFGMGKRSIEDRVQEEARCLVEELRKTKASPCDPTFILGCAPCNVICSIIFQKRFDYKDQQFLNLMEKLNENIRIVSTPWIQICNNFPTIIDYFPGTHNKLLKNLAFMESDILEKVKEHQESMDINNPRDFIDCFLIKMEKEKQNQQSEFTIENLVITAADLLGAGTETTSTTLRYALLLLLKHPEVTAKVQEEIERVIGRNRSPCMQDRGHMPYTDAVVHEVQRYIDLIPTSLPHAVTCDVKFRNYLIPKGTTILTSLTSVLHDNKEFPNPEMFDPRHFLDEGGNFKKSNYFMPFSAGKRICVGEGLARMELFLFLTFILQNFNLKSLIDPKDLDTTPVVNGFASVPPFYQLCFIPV
Protocol: as §1

CYP2C9 = CYP2C9 (Homo sapiens, UniProt P11712); experiment: in vitro; set-up: cytochrome P450 isoform inhibition liability assay
CYP2C9, sequence (P11712 whole entry, canonical isoform): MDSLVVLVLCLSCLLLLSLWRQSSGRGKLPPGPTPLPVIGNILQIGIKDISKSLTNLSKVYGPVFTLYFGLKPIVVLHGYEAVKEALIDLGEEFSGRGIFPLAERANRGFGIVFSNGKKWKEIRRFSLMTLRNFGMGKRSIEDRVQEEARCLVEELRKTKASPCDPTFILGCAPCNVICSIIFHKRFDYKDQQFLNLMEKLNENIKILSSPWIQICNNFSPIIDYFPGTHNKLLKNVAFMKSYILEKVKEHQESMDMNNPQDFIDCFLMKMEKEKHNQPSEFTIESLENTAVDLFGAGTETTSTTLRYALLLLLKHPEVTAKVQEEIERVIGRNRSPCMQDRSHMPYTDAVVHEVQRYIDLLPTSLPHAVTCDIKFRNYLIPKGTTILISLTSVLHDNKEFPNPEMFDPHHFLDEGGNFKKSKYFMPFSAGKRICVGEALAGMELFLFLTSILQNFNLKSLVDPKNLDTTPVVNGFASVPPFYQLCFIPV
Protocol: as §1

CYP2D6 = CYP2D6 (Homo sapiens, UniProt P10635); experiment: in vitro; set-up: cytochrome P450 isoform inhibition liability assay
CYP2D6, sequence (P10635 whole entry, canonical isoform): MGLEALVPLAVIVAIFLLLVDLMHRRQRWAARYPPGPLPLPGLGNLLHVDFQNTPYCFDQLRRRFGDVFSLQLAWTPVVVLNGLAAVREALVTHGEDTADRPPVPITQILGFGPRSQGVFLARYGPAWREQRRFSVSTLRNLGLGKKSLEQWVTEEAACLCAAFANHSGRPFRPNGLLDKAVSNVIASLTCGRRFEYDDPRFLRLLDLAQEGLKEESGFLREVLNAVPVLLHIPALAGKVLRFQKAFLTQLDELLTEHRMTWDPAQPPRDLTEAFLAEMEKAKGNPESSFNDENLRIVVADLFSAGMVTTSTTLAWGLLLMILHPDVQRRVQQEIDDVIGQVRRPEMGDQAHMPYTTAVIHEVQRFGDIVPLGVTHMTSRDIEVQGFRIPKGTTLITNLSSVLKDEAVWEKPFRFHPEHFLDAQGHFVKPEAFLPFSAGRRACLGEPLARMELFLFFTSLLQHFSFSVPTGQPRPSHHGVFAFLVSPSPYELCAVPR
Protocol: as §1

CYP3A4 = CYP3A4 (Homo sapiens, UniProt P08684); experiment: in vitro; set-up: cytochrome P450 isoform inhibition liability assay
CYP3A4, sequence (P08684 whole entry, canonical isoform): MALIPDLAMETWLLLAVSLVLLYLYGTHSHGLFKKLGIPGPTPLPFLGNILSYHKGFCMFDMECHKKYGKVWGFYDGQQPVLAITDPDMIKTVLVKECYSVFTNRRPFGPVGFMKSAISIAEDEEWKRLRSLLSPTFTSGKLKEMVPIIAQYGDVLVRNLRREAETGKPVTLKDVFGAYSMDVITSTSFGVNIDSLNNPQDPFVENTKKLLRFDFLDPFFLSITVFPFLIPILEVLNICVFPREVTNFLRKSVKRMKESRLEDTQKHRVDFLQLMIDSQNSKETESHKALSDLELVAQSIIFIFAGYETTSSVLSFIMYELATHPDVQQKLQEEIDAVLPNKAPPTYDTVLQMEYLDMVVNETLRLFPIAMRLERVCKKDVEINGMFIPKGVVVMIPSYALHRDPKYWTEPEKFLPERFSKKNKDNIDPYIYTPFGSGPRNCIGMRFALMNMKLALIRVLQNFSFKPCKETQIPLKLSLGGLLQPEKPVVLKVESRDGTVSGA
Protocol: as §1

786-O = experiment: cells; set-up: mitochondrial toxicity in 786-O renal carcinoma cells; details: Homo sapiens, 786-0; mitochondrial toxicity
Protocol: as §1

in vitro [2] = experiment: in vitro; set-up: cytotoxicity, per cent cell growth of A549 cells; details: human, a549 cells; read-out: % cell growth A549 at 10uM
Protocol: as §1

in vitro [3] = experiment: in vitro; set-up: cytotoxicity, per cent cell growth of WI-38 fibroblasts; details: human, wi-38 cells; read-out: % cell growth W1-38 at 10uM
Protocol: as §1

Compound | inhibition at 50 µM (TbPTR1) | inhibition at 50 µM [1] | inhibition at 10 µM (hERG) | inhibition at 10 µM (CYP1A2) | inhibition at 10 µM (CYP2C19) | inhibition at 10 µM (CYP2C9) | inhibition at 10 µM (CYP2D6) | inhibition at 10 µM (CYP3A4) | inhibition at 10 µM (786-O) | viability at 10 µM (in vitro [2]) | viability at 10 µM (in vitro [3]) | % Inhibition TbPTR1 at 50 μM (TbPTR1) | EC50 ([1]; read-out: EC50 T. brucei)
Nc1nnc(-c2ccccc2)s1 [1a] | 25.3 ± 1.2% | 21% | -3.3 ± 1.9% | 24.8 ± 1.8% | 76.9 ± 3.2% | 3.9 ± 2.9% | -8.5 ± 2.2% | 82.6 ± 1.6% | 0.9 ± 10.6% | 119 ± 12.5% | 101 ± 10.3% | – | –
NCc1ccc(-c2nnc(N)s2)cc1 [1b] | 7.7 ± 0.6% | 93% | 5.7 ± 3.9% | -5.3 ± 10.2% | -17.9 ± 3.7% | -7.9 ± 0.8% | -44.2 ± 10.4% | 23.7 ± 2.2% | 4.5 ± 2.5% | 114 ± 1.2% | 98.7 ± 11.4% | did not show inhibition | 800 nM
COc1cc(-c2nnc(N)s2)cc(OC)c1OC [1e] | 13.5 ± 0.4% | 1.4% | 1 ± 1.9% | 2.55 ± 3.9% | -18.5 ± 3.7% | -12.4 ± 3.9% | -37.2 ± 7.9% | -11.2 ± 10.3% | – | 114 ± 6.2% | 105 ± 22.3% | – | –
Nc1nnc(-c2cccc([N+](=O)[O-])c2)s1 [1k] | 15.6 ± 1.1% | 1.4% | 7 ± 5.8% | 31.1 ± 2.7% | -28.3 ± 17.9% | 12.5 ± 6.8% | -49.3 ± 17.6% | -14.2 ± 13.2% | -5.7 ± 12.9% | 113 ± 1.9% | 108 ± 16.8% | – | –
CN(C)C(=O)NCc1ccc(-c2nnc(N)s2)cc1 [1p] | 5.3 ± 0.9% | < 0% | 6.4 ± 1.9% | 20.9 ± 3.3% | 9.4 ± 6.5% | 36.6 ± 0.6% | 18.5 ± 2.7% | 15.1 ± 9.9% | 11.6 ± 10.1% | 108.7 ± 0.45% | 118 ± 24.8% | – | –
CN(C)C(=O)NCc1cccc(-c2nnc(N)s2)c1 [1q] | 2.5 ± 0.2% | 1.2% | – | 7 ± 1.9% | 19.6 ± 8.2% | 19.7 ± 3.6% | 20.4 ± 3.5% | 4.5 ± 11.4% | – | – | – | – | –
Nc1nnc(-c2ccco2)s1 [1s] | 9 ± 0.8% | < 0% | -3.8 ± 3.2% | 0.3 ± 4.9% | -10.4 ± 22.5% | -9 ± 3.5% | -47.6 ± 4.7% | -14.9 ± 9.7% | 1.9 ± 4.8% | 132 ± 9.6% | 138 ± 9.8% | – | –
Nc1nnc(-c2ccc(-c3ccccc3)cc2)s1 [2a] | 10.8 ± 0.4% | 43.1% | – | 98.9 ± 0.4% | 95.8 ± 0.7% | 76.7 ± 0.5% | 45.4 ± 3.1% | 50.6 ± 3.7% | 11.1 ± 4.1% | 142 ± 7.3% | 90.7 ± 4.9% | – | –
Cc1nnc(N)s1 [3a] | 5.4 ± 0.7% | < 0% | 8.2 ± 6.6% | -6.6 ± 2.1% | -35.5 ± 2.4% | -10.9 ± 5% | -46 ± 4.5% | -22.3 ± 9% | -4.4 ± 14.3% | 130 ± 19.1% | 130 ± 5.8% | – | –
Nc1nnc(Cc2cccc([N+](=O)[O-])c2)s1 [3c] | 15.8 ± 0.5% | 0.8% | -1.8 ± 0.6% | -10.9 ± 1.6% | -36.1 ± 11.8% | -8.8 ± 3% | -38.6 ± 16.3% | -16.9 ± 5.2% | -4.11 ± 5.77% | 117 ± 3.5% | 88.4 ± 11.1% | – | –
Nc1nnc(Cc2cccs2)s1 [3d] | 18.5 ± 0.6% | 7.5% | 16 ± 8.7% | 21.7 ± 3.4% | -17.4 ± 7.4% | 16 ± 2% | 29.6 ± 4% | 17.2 ± 4.1% | -2.9 ± 14.3% | 112 ± 4.9% | 105 ± 20.6% | – | –
Nc1nnc(Cc2ccc3ccccc3c2)s1 [3e] | 20.9 ± 0.3% | 0.4% | -5.6 ± 3.5% | 0.4 ± 1.3% | -54.9 ± 9.3% | -47.8 ± 3.9% | -31.7 ± 1.7% | -3.2 ± 3.8% | 4.3 ± 8.6% | 141 ± 5.6% | 105 ± 38.5% | – | –
Nc1nnc(CCc2ccccc2)s1 [3g] | 7.6 ± 0.3% | < 0% | -1.9 ± 1.3% | -14.9 ± 5.7% | -36.5 ± 6.1% | -10.5 ± 3.7% | -43.9 ± 4.1% | -25.6 ± 10.5% | 4 ± 16.1% | 109 ± 13.4% | 101 ± 17.5% | – | –
Nc1nnc(CCC(=O)c2ccccc2)s1 [3j] | 12.9 ± 0.7% | 1.2% | -2.3 ± 10.2% | -13.4 ± 12.3% | -35.4 ± 6.6% | -30.6 ± 6.8% | -30.6 ± 5.9% | -22.9 ± 7.1% | – | 138 ± 8.8% | 113 ± 8% | – | –
Nc1nnc(NCc2ccccc2)s1 [4b] | 39.5 ± 0.9% | < 0% | 1.8 ± 1.3% | -17.2 ± 3.6% | -32.1 ± 5.7% | -14.7 ± 3.3% | -32.7 ± 6.7% | -9.5 ± 6.2% | 9 ± 14.8% | 104 ± 9.3% | 124 ± 19% | – | –
Nc1nnc(NCc2ccccc2Cl)s1 [4d] | 21.8 ± 2.2% | < 0% | 15.2 ± 3.6% | 28.2 ± 1.2% | -13.3 ± 10.3% | 13.9 ± 3.5% | 90.3 ± 0.9% | 10.1 ± 10.7% | -1.6 ± 9.3% | 115 ± 8.9% | 55.4 ± 2.4% | – | –
Nc1nnc(NCc2ccc(F)cc2)s1 [4g] | 14.7 ± 1.7% | 33% | 96.9 ± 6.1% | 24.9 ± 2.6% | -13.9 ± 11.1% | 22.9 ± 1.3% | 103.1 ± 0.6% | 11.2 ± 3.1% | -8.3 ± 12.6% | 110 ± 8% | 97.1 ± 30.2% | – | –
